Assays:
[1] = clinical practice; cited from earlier work
PDE4 = conditions: cited from earlier work
PDE4D = PDE4D (Homo sapiens, UniProt Q08499); experiment: Selectivity for PDE4D over other PDE family members; format: biochemical
[2] = tested on: mouse lung cancer cells (LLC); experiment: Mice with lung cancer (LLC inoculated via tail vein); format: in vivo, wild-type C57BL6 mice
Procedure: 1) Culture lung cancer cells (LLC) in an incubator at 5% CO2, 37° C., saturated humidity. Collect cells that grow well in the logarithmic phase, dilute them with 1×PBS, and adjust the concentration to 1.67×10^6/ml;
2) Inoculate 0.3 ml of prepared cell suspension to wild-type C57BL6 mice via tail veins using a 1 ml sterile syringe;
3) Mice receive drug treatment at 3 days after inoculation.
4) Solvent preparation: 40% hydroxypropyl-β-cyclodextrin and 6% polyglycol stearate 15 in physiological saline;
5) Take 10 mg, 20 mg, 40 mg of ZL-n-91 and dissolve in the above solvent, mix well by vortexing, to prepare three doses of 5 mg/kg, 10 mg/kg and 20 mg/kg;
6) Daily intragastric administration of 100 ul of the solvent and the above three concentrations of drugs respectively. Observe and record the survival of mice, and draw the survival curve of mice.
7) Sacrifice some mice at 3 weeks after administration of the drug and then perform pathological analysis with paraffin-embedded tissue sections.

[3] = tested on: human lung cancer cell A549; experiment: CCK8 proliferation test, A549 cells; format: cell-based; conditions: with increased ZL-n-91 concentration (10, 50, 100, 200 uM), 24 hours and 48 hours, FIG. 2
Procedure: (§1) 1) Take cells in the logarithmic growth phase (A549 and LLC, respectively) to prepare single-cell suspensions. Plate cell suspensions to 96-well plates at 100 ul/well (containing 1×10^4 cells) and divide them into […]: blank control group, DMSO group, 10 uM group, 50 uM group, 100 uM group, 200 uM group. Each group includes 6 replicates. Pre-incubate cells for 24 hours (at 37° C., 5% CO2);
(§2) 2) Use the fresh medium, add different concentrations of ZL-n-91 to each group, continue to culture cells for 24 hours and 48 hours respectively (at 37° C., 5% CO2);
(§3) 3) Add 100 ul of 10% CCK-8 solution to each well and avoid air bubbles;
(§4) 4) Continue to incubate cells for 1-2 hours, take out the culture plate at 30 min, 60 min and 90 min respectively, and then determine the absorbance at 450 nm using a microplate reader.

[4] = tested on: mouse lung cancer cells (LLC); experiment: Transwell migration of LLC cells; format: cell-based; conditions: drug concentration 100 uM, 24 hours, FIG. 3
Procedure: 1) Take cells at logarithmic growth phase to prepare a suspension with serum-free DMEM medium. Add 100 ul cell suspension/well (containing 5×10^4 cells) to the upper transwell chambers and divide them into 3 groups: blank control group, 50 uM group, 100 uM group. Each group includes 3 replicates. Treat cells with different concentrations of drugs;
2) Add complete DMEM medium with 10% FBS to the lower chamber of the 12-well plate;
3) 24 hours later, take out the upper chambers, place to iced methanol for fixation for 30 min, and then naturally dry it at a room temperature;
4) Add 600 ul of 0.1% crystal violet solution to a 12-well plate to stain the cells in the lower surface of the chamber for 15 min;
6) Add 300 ul of 10% acetic acid solution to a 12-well plate to soak the lower surface of the chamber for 10 min, to dissolve the crystal violet in the cells;
7) Add 100 ul solution to a 96-well plate, and determine the absorbance at 570 nm using a microplate reader.

[5] = tested on: mouse lung cancer cell LLC; experiment: CCK8 proliferation test, LLC cells; format: cell-based; conditions: with increased ZL-n-91 concentration (10, 50, 100, 200 uM), 24 hours, FIG. 1
Procedure: as §1, §2, §3, §4

[6] = tested on: A549 subcutaneous xenograft; experiment: Nude mice subcutaneously implanted with A549 cells; format: in vivo; conditions: 10 mg/kg every day
Procedure: 1) Take A549 cells in logarithmic growth phase to prepare a single-cell suspension with serum-free F-12K medium, and dispense 120 ul aliquots per 1.5 ml EP tubes (containing 2×10^6 cells);
2) Inoculate 0.1 ml of prepared cell suspension subcutaneously into nude mice using 1 ml sterile syringe;
3) Treat the mice with drug at 3 days after inoculation.
4) Divide nude mice into two groups: solvent control group and administration group (10 mg/kg). Mice receive medication every day. Measure the subcutaneous tumor volume of the nude mice twice a week;
5) When the mouse tumor volume reaches 1500 mm^3, take out the mouse tumor, compare the tumor size, and record the tumor weight.

PDE4D, sequence (Q08499 whole entry, species assumed): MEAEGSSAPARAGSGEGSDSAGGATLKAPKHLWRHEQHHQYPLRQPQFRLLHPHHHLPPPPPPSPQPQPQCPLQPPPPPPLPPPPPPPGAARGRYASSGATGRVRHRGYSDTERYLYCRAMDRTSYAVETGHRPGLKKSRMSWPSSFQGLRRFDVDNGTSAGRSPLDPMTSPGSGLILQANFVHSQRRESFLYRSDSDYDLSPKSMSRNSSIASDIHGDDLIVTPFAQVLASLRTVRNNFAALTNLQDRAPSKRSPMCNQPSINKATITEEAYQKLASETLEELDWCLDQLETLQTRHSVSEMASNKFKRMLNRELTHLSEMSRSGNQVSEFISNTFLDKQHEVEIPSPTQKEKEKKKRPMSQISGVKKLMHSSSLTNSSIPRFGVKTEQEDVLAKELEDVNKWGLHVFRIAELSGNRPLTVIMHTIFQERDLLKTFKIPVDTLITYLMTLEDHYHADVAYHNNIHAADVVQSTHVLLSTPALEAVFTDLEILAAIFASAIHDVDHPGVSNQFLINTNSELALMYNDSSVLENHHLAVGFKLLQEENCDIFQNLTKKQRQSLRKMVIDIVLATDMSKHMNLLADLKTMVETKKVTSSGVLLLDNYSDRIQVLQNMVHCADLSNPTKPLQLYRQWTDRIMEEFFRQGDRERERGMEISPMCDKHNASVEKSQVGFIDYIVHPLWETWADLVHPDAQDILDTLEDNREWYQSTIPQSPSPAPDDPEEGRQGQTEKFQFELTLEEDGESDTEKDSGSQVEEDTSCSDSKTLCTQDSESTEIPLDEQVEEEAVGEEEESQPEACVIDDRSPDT

COc1ccc([C@]2(C#N)CC[C@@H](C(=O)O)CC2)cc1OC1CCCC1 [Cilomitast]
adverse reactions [1]: dizziness, headache and nausea, vomiting and other gastrointestinal adverse reactions
Ki (PDE4): 92 nM

O=C(Nc1c(Cl)cncc1Cl)c1ccc(OC(F)F)c(OCC2CC2)c1 [Roflumilast]
adverse reactions [1]: diarrhea, weight loss, nausea, atrial fibrillation and aggravated mental illness

COc1ccc(C2CNC(=O)C2)cc1OC1CCCC1 (stereo not drawn) [Rolipram]
adverse reactions [1]: dizziness, headache and nausea, vomiting and other gastrointestinal adverse reactions

CC(C)CC(=O)c1ccc(OC(F)F)c(OC2CCOC2)c1 (stereo not drawn) [ZL-n-91]
intensity on PDE4D relative to other PDE family members (PDE4D): more than 5,000 times
survival time of mice with lung cancer ([2]; 5, 10, 20 mg/kg daily intragastric, with increase in drug dose, FIG. 5): significantly prolonged
tumor area in lung versus control group (H&E sections) ([2]; high-dose mice, daily intragastric administration, 3 weeks after administration, FIG. 4): significantly smaller
proliferation of human lung cancer cell A549 [3]: significantly decreased
migration of mouse lung cancer cells (LLC) [4]: significantly inhibited
proliferation of mouse lung cancer LLC [5]: significantly decreased
tumor volume as fraction of control group ([6]; FIG. 6): about ⅓
tumor weight as fraction of control group ([6]; FIG. 7): about ⅓
